Measurements reported in patent US20220162257A1, “3ALPHA, 5BETA-NEUROACTIVE STEROIDS FOR THE TREATMENT OF EPILEPSY AND SEIZURE DISEASES” (USTAV ORGANICKE CHEMIE A BIOCHEMIE AV CR, V. V. I., priority 2019, published 2022).

Experiments:
Format in all cases: in vivo, rat
[1] = test system: PTZ-induced seizures in 12- and 25-day-old rats; assay: PTZ-induced generalized tonic-clonic seizures in immature rats
Method: (§1) Anticonvulsant effect of compounds was evaluated in two models of epileptic seizures in immature rats (PTZ model and 6 Hz model). PTZ convulsions were tested in 12- and 25-day-old rats, 6 Hz-induced seizures in 15- and 25-day-old rats. Young adult rats (P60) were also used in either test. Day of birth was taken as P0. Experiments evaluating precognitive effect were performed in adult male rats of the Wistar and Long Evans strain (3 months old, b.w. 300-400 g). All animals were obtained from a breeding facility of Institute of Physiology CAS (certificate No. 1396/2014-MZE-17214) Animals were held in standard conditions (21±1° C., humidity 50-60%, light regime 12/12) with unrestricted access to food and water. All manipulations with animals were performed according to the https://nc3rs.org.uk/arrive-guidelines and to Czech Animal Protection Law 246/1992 Sb. And international directives (EU Directive 2010/63/EU for animals' experiments).
(§2) Two age groups of immature male Wistar rats were used in either experiment. In PTZ model P12 corresponding by a maturation of the brain to early postnatal human babies, i.e. to the period where children epileptic encephalopathy mostly resistant to present pharmacotherapy start to appear. The other group—P25 animals corresponds with school-age children. Generalized tonic-clonic seizures were elicited by a subcutaneous injection of PTZ in a dose of 100 mg/kg. The 6 Hz model was tested in P15 (at this age eyes are open and it is not necessary to surgically distract lids). Biphasic pulses with […] were applied transcorneally for 3 s by a constant current stimulator of Ugo Basile company. PTZ induced generalized seizures represent a model of human generalized tonic-clonic seizures, seizures elicited by 6 Hz stimulation are generally taken as a model of temporal (psychomotor, complex partial) seizures. Differences in latencies and seizure severity were evaluated by ANOVA with a subsequent pairwise comparison by Holm-Sidak test. Incidence of seizures were evaluated by Fischer exact test. Critical p value was set at p=0.05.
Anticonvulsant effect was studied in 12- and 25-day-old male Wistar rats. Steroid derivatives were administered at doses of 1, 5 and 10 mg/kg i.p. 20 min before the administration of PTZ (100 mg/kg s.c.).

[2] = test system: seizures elicited by 6 Hz stimulation in rats; assay: 6 Hz transcorneal electrical stimulation seizure model in rats
Method: as §1, §2
Younger group was formed by 15-day-old animals—the animals at this age have open eyes and it is not necessary to distract eyelids surgically. The other group was 25 days old. Sensitivity of these two age groups is different, therefore we used current intensities of 40, 60, and 80 mA in 15-day-old rats and 20, 40, and 60 mA in the 25-day-old animals. Stimulations were made in 20-min intervals, 10 min before each stimulation a drop of mesocaine into either eye was used as a local anesthetic. Steroid derivatives in a dose of 10 mg/kg i.p. were administered 20 min before the first stimulation. Seizures elicited by 60-mA intensity of stimulation current were suppressed, those elicited by 80 mA not.

[3] = test system: anxiety parameters in rats; assay: Elevated plus maze test (EPM); settings: 10 mg/kg i.p., 30 minutes before maze testing
Method: as §1
Behavioral models of the affective disorders are based on exposure to stress. […]
In the EPM test, the Compound from Example 1 was administered at doses of 1, 3 and 10 mg/kg, i.p. 30 minutes before maze testing. Time spent in open arms, closed arms, and central platform were recorded during a 10-min test session.

[4] = test system: NMDA lesion of the dorsal hippocampus in male rats; assay: bilateral excitotoxic NMDA lesion of the dorsal hippocampus; settings: 1 mg/kg i.p. 5 minutes after NMDA lesion, evaluated 24 h
Method: The tissue damage is induced by infusing NMDA (25 mmol.L^−1) into the dorsal hippocampus in the male rats. The figures in panel (FIG. 9A) show representative images of brain slices of control animals, in panel (FIG. 9B) the group of animals which were administered the solutions containing NMDA into dorsal hippocampus (NMDA lesion) and i.p. treated by (2-hydroxypropyl)-β-cyclodextrin (CDX) and in panel (FIG. 9C) brain slices of the animals, with NMDA lesions of the dorsal hippocampus and i.p. treated by the Compound of Example 1 at a dose of 1 mg/kg dissolved in CDX.
The neuroprotective effect of the Compound from Example 1 was tested in the model of bilateral excitotoxic lesion of the dorsal hippocampus. The procedure was performed according to literature (Neuropharmacology 2011, 61, 61). This model simulates the overstimulation of NMDA receptors that occurs in the number of pathophysiological states, leading to calcium flow into the neuron's and, consequently, to apoptosis […] necrosis. Clinically, this phenomenon is manifested by neurodegeneration and CNS damage. Rats were randomly divided into three groups. […] Histological damage, e.g. the neuroprotective effect of Compound from Example 1 was evaluated by staining damaged neurons with Fluoro Jade B (Merck Millipore, Catalog Number AG310-30MG), and evaluated areas included: hippocampus-DG, hilus, CA3, CA1.

With `CC(=O)[C@H]1CC[C@H]2[C@@H]3CC[C@@H]4C[C@H](OC(=O)C5CCC(=O)N5)CC[C@]4(C)[C@H]3CC[C@]12C` (stereo partly drawn) [Example 1, (3R,5R,8R,9S,10S,13S,14S,17S)-17-Acetyl-10,13-dimethylhexadecahydro-1H-cyclopenta[a]fenantren-3-yl 5-oxopyrrolidine-2-carboxylate] the “seizure severity (5-point scale)” value ([1]; P12 and P25 rats, 1, 5, 10 mg/kg i.p.) was “copied the presence of GTCS”, the “tonic phase of GTCS” value ([1]; P12 rats, 1 mg/kg i.p.) was “suppressed the tonic phase of GTCS” and the incidence of seizures ([1]; P12 rats, 5 mg/kg i.p.) was “significantly decrease the incidence of seizures”. For the same compound, the incidence of seizures ([1]; P12 rats, 10 mg/kg i.p.) was “completely suppressed the seizures”, the “latencies to GTCS” value ([1]; P12 rats, 1 and 5 mg/kg i.p.) was “significantly prolonged” and the latencies of seizures ([1]; P25 rats, 1 mg/kg i.p.) was “not changed”. The animals with seizures ([1]; P25 rats, 5 and 10 mg/kg i.p.) was “one animal only”, the “incidence of GTCS” value ([1]; P25 rats, 5 and 10 mg/kg i.p.) was “decrease the incidence of GTCS without a selective effect against the tonic phase” and the seizure severity ([2]; P15 rats, 10 mg/kg i.p.) was “not affected”. The duration of seizures ([2]; P15 rats, 60 and 80 mA, 10 mg/kg i.p.) was “significantly shortened at both current intensities”, the incidence of seizures ([2]; P15 rats, 60 mA, 10 mg/kg i.p.) was “suppressed” and the “incidence of seizures (suppressed or not)” value ([2]; P15 rats, 80 mA, 10 mg/kg i.p.) was “not”. The duration of seizures ([2]; P25 rats, 10 mg/kg i.p.) was “significantly shorter”, the incidence of seizures ([2]; P25 rats, 10 mg/kg i.p.) was “tendency to a decreased incidence of seizures” and the “seizure intensity (severity)” value ([2]; P25 rats, 10 mg/kg i.p.) was “lower intensity”. For the same compound, the “changes of the threshold intensity” value ([2]; adult (P60) rats, 1, 5, 10 mg/kg i.p., tendency after 10 mg/kg) was “did not reach the level of significance”, the anxiety parameters [3] was “significant reduction of anxiety parameters” and the “dorsal hippocampus damage (Fluoro Jade B staining)” value [4] was “significant reduction in the dorsal hippocampus damage”.
